Structures are written as SMILES. pIC50: −log10 of the molar value.

For this test, the target named is human BTK (Homo sapiens (Human), UniProt Q06187). The test can be described thus: Btk enzymatic kinase assay (electrophoretic mobility shift assay). In kind it is biochemical. Conditions: recombinant full-length human BTK 1 nM, ATP 16 μM, peptide substrate 1 μM, one hour incubation. As to the method: Kinase activity is measured in vitro using electrophoretic mobility shift assay. The kinase reactions are assembled in a total volume of 25 μL in 384 well plates. […] The reaction is incubated for one hour and is quenched by the addition of 45 μL of termination buffer (100 mM HEPES, pH7.5, 0.01% Triton X-100, 30 mM EDTA). The terminated reactions are analyzed using 12 channel LabChip® 3000 microfluidic detection instrument (Caliper Life Sciences). […] Change in the relative fluorescence intensity of the substrate and product peaks is the parameter measured, reflecting enzyme activity. In the presence of an inhibitor, the ratio between product and substrate is altered: the signal of the product decreases, while the signal of the substrate increases.
Chain of human BTK (Q06187 whole entry): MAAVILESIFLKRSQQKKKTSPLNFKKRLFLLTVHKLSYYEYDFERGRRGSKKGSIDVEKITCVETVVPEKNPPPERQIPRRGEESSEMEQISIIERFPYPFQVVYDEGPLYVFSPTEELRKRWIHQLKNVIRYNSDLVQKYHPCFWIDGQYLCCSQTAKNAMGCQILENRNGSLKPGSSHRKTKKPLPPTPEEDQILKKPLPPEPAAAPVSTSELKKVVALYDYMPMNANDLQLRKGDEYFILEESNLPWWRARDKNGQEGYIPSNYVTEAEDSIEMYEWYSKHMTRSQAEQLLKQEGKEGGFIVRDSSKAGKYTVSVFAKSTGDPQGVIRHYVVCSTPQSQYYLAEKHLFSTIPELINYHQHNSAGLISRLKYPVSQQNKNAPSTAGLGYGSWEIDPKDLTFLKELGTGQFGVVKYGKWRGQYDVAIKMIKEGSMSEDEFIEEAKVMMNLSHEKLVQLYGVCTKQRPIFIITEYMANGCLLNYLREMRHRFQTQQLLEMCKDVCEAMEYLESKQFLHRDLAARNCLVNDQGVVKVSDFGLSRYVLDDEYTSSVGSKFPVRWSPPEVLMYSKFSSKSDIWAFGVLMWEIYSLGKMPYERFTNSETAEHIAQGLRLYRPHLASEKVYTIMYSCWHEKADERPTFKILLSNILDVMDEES
Activity in each sample is determined as the product to sum ratio (PSR): P/(S+P), where P is the peak height of the product peptide and S is the peak height of the substrate peptide. For each compound, enzyme activity is measured at various concentrations (12 concentrations of compound spaced by 3× dilution intervals). […] Percent inhibition (Pinh) is determined using following equation: […]
The IC50 values of inhibitors are determined by 4 parameter sigmoidal dose-response model fitting of the inhibition curves (Pinh versus inhibitor concentration) using XLfit 4 software.

On to `COCCOc1ccc(Nc2ncc(F)c(Nc3cccc(NC(=O)C(O)CO)c3)n2)cc1` (stereo not shown) [Compound 4, N-(3-(5-fluoro-2-(4-(2-methoxyethoxy)phenylamino)pyrimidin-4-ylamino)phenyl)-2,3-dihydroxypropanamide], for which the pIC50 (usually the IC50 on a negative log10 scale, so that one unit is a factor of ten) was over 6.30.

(Values after patent US9133134B2, “Inhibitors of bruton's tyrosine kinase” (Pharmacyclics, Inc., priority 2012, dated 2015).)
